Columns and labels:
β-glucosidase = β-glucosidase inhibition assay; assay type: biochemical; conditions: final concentration of 100 μM in every well; pH 6.8, 37 °C
α-glucosidase = α-glucosidase (Saccharomyces cerevisiae, UniProt P53341); assay: α-glucosidase inhibition assay; assay type: biochemical
α-glucosidase, sequence (P53341 whole entry): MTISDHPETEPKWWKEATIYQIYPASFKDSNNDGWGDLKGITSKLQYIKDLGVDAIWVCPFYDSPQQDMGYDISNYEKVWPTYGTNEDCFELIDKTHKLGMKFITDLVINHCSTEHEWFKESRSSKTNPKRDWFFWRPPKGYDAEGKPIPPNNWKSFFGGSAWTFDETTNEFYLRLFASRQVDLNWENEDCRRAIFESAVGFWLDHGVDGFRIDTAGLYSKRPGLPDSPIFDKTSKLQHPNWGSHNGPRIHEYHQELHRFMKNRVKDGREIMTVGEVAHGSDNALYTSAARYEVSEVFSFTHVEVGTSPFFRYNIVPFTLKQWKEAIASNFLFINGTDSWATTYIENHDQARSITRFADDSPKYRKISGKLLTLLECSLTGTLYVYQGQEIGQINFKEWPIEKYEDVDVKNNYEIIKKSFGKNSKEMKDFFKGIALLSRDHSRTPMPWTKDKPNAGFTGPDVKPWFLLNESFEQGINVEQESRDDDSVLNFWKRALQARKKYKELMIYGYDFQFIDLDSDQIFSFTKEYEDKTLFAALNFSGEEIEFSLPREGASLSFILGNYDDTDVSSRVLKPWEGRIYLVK

Structure (SMILES)	β-glucosidase % age inhibition (β-glucosidase) [%]	IC50 (α-glucosidase) [µM]	α-glucosidase inhibitory efficacy, folds stronger than acarbose (α-glucosidase; ratio of IC50 values versus acarbose) [folds]
COc1cc(C(=O)N=c2scc(-c3ccc(F)cc3)n2-c2ccc(F)c(Cl)c2)cc(OC)c1OC [6a, N-(3-(3-Chloro-4-fluorophenyl)-4-(4-fluorophenyl)thiazol-2(3H)-ylidene)-3,4,5-trimethoxybenzamide]	11.2	18.2 ± 0.02	
O=C(N=c1scc(-c2ccc(F)cc2)n1-c1ccccc1F)c1ccccc1Cl [6b, 2-Chloro-N-(3-(2-fluorophenyl)-4-(4-fluorophenyl)thiazol-2(3H)-ylidene)benzamide]	24.2	3.23 ± 0.07	
O=C(N=c1scc(-c2ccc(F)cc2)n1-c1ccccc1F)c1ccccc1F [6c, 2-Fluoro-N-(3-(2-fluorophenyl)-4-(4-fluorophenyl)thiazol-2(3H)-ylidene)benzamide]	36.3	2.98 ± 0.04	
O=C(N=c1scc(-c2ccc(F)cc2)n1-c1ccccc1F)c1cccc(F)c1 [6d, 3-Fluoro-N-(3-(2-fluorophenyl)-4-(4-fluorophenyl) Thiazol-2(3H)-ylidene)benzamide]	18.6	1.47 ± 0.05	~24
COc1cc(C(=O)N=c2scc(-c3ccc(F)cc3)n2-c2ccc(F)cc2)cc(OC)c1OC [6e, N-(3,4-Bis(4-fluorophenyl)thiazol-2(3H)-ylidene)-3,4,5-trimethoxybenzamide]	9.33	2.1 ± 0.06	
O=C(N=c1scc(-c2ccc(F)cc2)n1-c1ccc(F)c(Cl)c1)c1ccc(F)cc1 [6g, N-(3-(3-Chloro-4-fluorophenyl)-4-(4-fluorophenyl)thiazol-2(3H)-ylidene)-4-fluorobenzamide]	20.1	3.16 ± 0.15	
O=C(N=c1scc(-c2ccc(F)cc2)n1-c1ccc(F)cc1)c1ccccc1Cl [6h, N-(3,4-Bis(4-fluorophenyl) Thiazol-2(3H)-ylidene)-2-chlorobenzamide]	17.5	4.33 ± 0.19	
COc1cc(C(=O)N=c2scc(-c3ccc(F)cc3)n2-c2cccc(F)c2)cc(OC)c1OC [6i, N-(3-(3-Fluorophenyl)-4-(4-fluorophenyl)thiazol-2(3H)-ylidene)-3,4,5-trimethoxybenzamide]	15.4	8.31 ± 0.13	
O=C(N=c1scc(-c2ccc(F)cc2)n1-c1ccc(F)c(Cl)c1)c1ccccc1F [6j, N-(3-(3-Chloro-4-fluorophenyl)-4-(4-fluorophenyl)thiazol-2(3H)-ylidene)-2-fluorobenzamide]	12.8	12.5 ± 0.22	
C[C@H]1O[C@H](O[C@H]2[C@H](O)[C@@H](O)[C@@H](O[C@H]3[C@H](O)[C@@H](O)C(O)O[C@@H]3CO)O[C@@H]2CO)[C@H](O)[C@@H](O)[C@@H]1N[C@H]1C=C(CO)[C@@H](O)[C@H](O)[C@H]1O (some centres unmarked) [acarbose, reference compound]	63.7		
